The record followed here is ChEMBL document CHEMBL3108712, “Viniphenol A, a complex resveratrol hexamer from Vitis vinifera stalks: structural elucidation and protective effects against amyloid-β-induced toxicity in PC12 cells” (J Nat Prod, 2014).

The test deals with PC-12. In words: Neuroprotective activity against amyloid beta (25 to 35)-induced toxicity in rat PC12 cells assessed as cell viability preincubated for 48 hrs with amyloid beta (25 to 35) followed by addition to cell culture measured after 24 hrs by MTT assay. The test is classed as functional, cell-based.

In the case of `Oc1ccc([C@@H]2c3c(O)cc(O)cc3[C@H]3c4c(cc(O)cc4[C@@H]2[C@@H](c2ccc(O)cc2)[C@@H]2c4cc(O)cc5c4[C@H](c4cc(O)cc(O)c4[C@@H](c4ccc(O)cc4)[C@@H]2c2cc(O)cc4c2[C@H](c2cc(O)cc(O)c2)[C@@H](c2ccc(O)cc2)O4)[C@@H](c2ccc(O)cc2)O5)O[C@@H]3c2ccc(O)cc2)cc1`, the Activity result was “Dose-dependent effect”.
